In publication PMC12118337, “Development of a Peptide Inhibitor Targeting the C‐SH2 Domain of the SHP2 Phosphatase” (Chembiochem, 2025):
Non-standard residues stand in square brackets, D forms with d. Residues, ends and D or L forms follow the SMILES beside them. *: point of attachment. 5FAM = O=C1OC2(c3ccc(O)cc3Oc3cc(O)ccc32)c2ccc(C(=O)*)cc21; pY = N[C@@H](Cc1ccc(OP(=O)(O)O)cc1)C(=O)O

Legend:
[1] = biological target: T1, SHP2 C‐SH2 domain (Homo sapiens, UniProt Q06124); assay: Fluorescence polarization (FP) binding assay, SHP2 C-SH2 domain; conditions: 100 nM FAM-labelled peptide, increasing C-SH2 protein, 50 mM HEPES pH 7.5, 150 mM NaCl, 1 mM EDTA, 0.05% Tween 20, FP at 10 min, three independent experiments in technical triplicates, read-out: K D ± SEM, C‐SH2 (FP)
T1 construct: SHP2 N-SH2 domain (1–105), C-SH2 domain (106–220), PTP domain (224–541) and; His6 (pETM22 vector) (N, cleaved yes); made in house; host or cells: E. coli BL21(DE3)
T1 sequence (Q06124 106-220): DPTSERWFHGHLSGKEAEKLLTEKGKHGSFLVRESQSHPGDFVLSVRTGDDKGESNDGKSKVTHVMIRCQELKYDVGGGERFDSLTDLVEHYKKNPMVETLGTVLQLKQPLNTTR
Experimental: (§1) buffer and stored in 5 mL binding buffer at 4°C. His-tagged 3C protease (0.5 mg; EMBL) was added to the pooled eluted fractions and dialysed using Spectra Por Dialysis Tubing (MWCO 6-8 kDa, 23 mm; Spectrum Labs) in 1 L of binding buffer at 4°C for 3 hours, then overnight in fresh buffer. A new column was prepared by loading 2 mL Ni-NTA Agarose (Invitrogen) as a 50% slurry in EtOH. The column was washed with 10 mL H2O to remove the EtOH and equilibrated with 10 mL binding buffer. The protein/3C protease mixture was loaded onto the column and incubated for 1 hour at 4°C on a rocker. The flow through containing the protein was collected, the column was washed with 100 mL binding buffer and the 3C protease was eluted with 5 mL elution buffer. Protein purification was monitored by SDS-PAGE using NuPAGE 4-12% Bis-Tris Protein Gels (Invitrogen) run in MOPS buffer (50 mM MOPS, 50 mM Tris-HCl pH 7.7, 1 mM EDTA, 0.1% SDS) followed by Coomassie staining using Coomassie Brilliant Blue (Roth). The purified protein was dialysed into the final storage buffer (50 mM HEPES pH 7.5, 150 mM NaCl, 2 mM DTT, 20% glycerol). Aliquots were prepared and stored at -80°C until required. […]
(§2) 4. Fluorescence polarization
(§3) Fluorescence polarization (FP) was used to measure the binding of FAM-labelled peptides to the SHP2 C-SH2, SHP2 N-SH2, SHP2 PTP, CSK SH2 or Src SH2 domains. Each peptide was added to increasing concentrations of SHP2 C-SH2, SHP2 N-SH2, SHP2 PTP, CSK SH2 or Src SH2 protein in FP buffer (50 mM HEPES pH 7.5, 150 mM NaCl, 1 mM EDTA, 0.05% Tween 20) to give a final peptide […]
(§4) concentration of 100 nM in a final volume of 200 µL. For baseline subtraction, each peptide was added to FP buffer, instead of protein, with a final peptide concentration of 100 nM in a final volume of 200 µL. Samples were mixed gently then 3 x 60 µL of each sample was transferred into triplicate wells in a 96-well plate (OptiPlate-96 F Black; PerkinElmer). The FP was immediately measured on a Synergy H1 Microplate Reader (BioTek) with the excitation and emission monitored at 485 nm and 528 nm, respectively, over 30 minutes. FP values were automatically calculated by the Gen5 3.03 (BioTek) software associated with the microplate reader. Data were analysed in Excel 2016 by subtracting baseline values from FP values at 10 minutes. Data were then further analysed in GraphPad Prism 6 by plotting the baseline subtracted FP values against the protein concentration and fitting the data to a variable slope model of non-linear regression to obtain the KD values. Data are from three independent experiments, each performed in technical triplicates.
(§5) 5. Isothermal titration calorimetry […]
(§6) Analysis Software (Malvern Panalytical). For the data analysis, a 1:1 binding stoichiometry between the Ac-ITSM(pTyr) and SH2 domain was assumed. ITC measurements were performed once.

[2] = biological target: T2, SHP2 N‐SH2 domain (Homo sapiens, UniProt Q06124); assay: Fluorescence polarization (FP) binding assay, SHP2 N-SH2 domain; conditions: 100 nM FAM-labelled peptide, increasing N-SH2 protein, 50 mM HEPES pH 7.5, 150 mM NaCl, 1 mM EDTA, 0.05% Tween 20, FP at 10 min, three independent experiments in technical triplicates, read-out: K D ± SEM, N‐SH2 (FP)
T2 construct: SHP2 N-SH2 domain (1–105), C-SH2 domain (106–220), PTP domain (224–541) and; His6 (pETM22 vector) (N, cleaved yes); made in house; host or cells: E. coli BL21(DE3)
T2 sequence (Q06124 1-105): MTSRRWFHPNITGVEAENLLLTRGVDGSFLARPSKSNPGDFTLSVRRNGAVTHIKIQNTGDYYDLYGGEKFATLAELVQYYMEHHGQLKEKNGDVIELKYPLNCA
Experimental: as §1, §2, §3, §4, §5, §6

Structure (SMILES) | Kd [1] [µM] | Kd [2] [µM]
CC[C@H](C)[C@H](NC(=O)[C@@H](NC(=O)[C@H](C)NC(=O)[C@H](Cc1ccc(OP(=O)(O)O)cc1)NC(=O)[C@H](CCC(=O)O)NC(=O)[C@@H](NC(=O)[C@H](CCC(N)=O)NC(=O)[C@H](CCC(=O)O)NC(=O)c1ccc2c(c1)C(=O)OC21c2ccc(O)cc2Oc2cc(O)ccc21)[C@@H](C)O)[C@@H](C)O)C(=O)N[C@@H](CCCCN)C(=O)N[C@@H](Cc1ccccc1)C(=O)N1CCC[C@H]1C(N)=O [compound 9] (5FAM-EQTE[pY]ATIKFP-NH2) | 0.072 ± 0.00261 | > 2
CC(C)[C@H](NC(=O)[C@@H](NC(=O)[C@H](C)NC(=O)[C@H](Cc1ccc(OP(=O)(O)O)cc1)NC(=O)[C@H](CCC(=O)O)NC(=O)[C@@H](NC(=O)[C@H](CCC(N)=O)NC(=O)[C@H](CCC(=O)O)NC(=O)c1ccc2c(c1)C(=O)OC21c2ccc(O)cc2Oc2cc(O)ccc21)[C@@H](C)O)[C@@H](C)O)C(=O)N[C@@H](CCCCN)C(=O)N[C@@H](Cc1ccccc1)C(=O)N1CCC[C@H]1C(N)=O [compound 10] (5FAM-EQTE[pY]ATVKFP-NH2) | 0.209 ± 0.0144 | > 3
CC[C@H](C)[C@H](NC(=O)[C@@H](NC(=O)[C@H](C)NC(=O)[C@H](Cc1ccc(OP(=O)(O)O)cc1)NC(=O)[C@H](CCC(=O)O)NC(=O)[C@@H](NC(=O)[C@H](CCC(N)=O)NC(=O)c1ccc2c(c1)C(=O)OC21c2ccc(O)cc2Oc2cc(O)ccc21)[C@@H](C)O)[C@@H](C)O)C(=O)N[C@H](C(=O)N[C@@H](Cc1ccccc1)C(=O)N1CCC[C@H]1C(N)=O)C(C)C [compound 11] (5FAM-QTE[pY]ATIVFP-NH2) | 0.0408 ± 0.00096 | 0.204 ± 0.0104
CC[C@H](C)[C@H](NC(=O)[C@@H](NC(=O)[C@H](C)NC(=O)[C@H](Cc1ccc(OP(=O)(O)O)cc1)NC(=O)[C@H](CCC(=O)O)NC(=O)[C@@H](NC(=O)[C@H](CCC(N)=O)NC(=O)c1ccc2c(c1)C(=O)OC21c2ccc(O)cc2Oc2cc(O)ccc21)[C@@H](C)O)[C@@H](C)O)C(=O)N[C@@H](CCCCN)C(=O)N[C@@H](Cc1c[nH]c2ccccc12)C(=O)N1CCC[C@H]1C(N)=O [compound 13] (5FAM-QTE[pY]ATIKWP-NH2) | 0.0468 ± 0.00129 | 0.368 ± 0.04
CC[C@H](C)[C@H](NC(=O)[C@@H](NC(=O)[C@H](C)NC(=O)[C@H](Cc1ccc(OP(=O)(O)O)cc1)NC(=O)[C@H](CCC(=O)O)NC(=O)[C@@H](NC(=O)[C@H](CCC(N)=O)NC(=O)c1ccc2c(c1)C(=O)OC21c2ccc(O)cc2Oc2cc(O)ccc21)[C@@H](C)O)C(C)C)C(=O)N[C@@H](CCCCN)C(=O)N[C@@H](Cc1ccccc1)C(=O)N1CCC[C@H]1C(N)=O [compound 14] (5FAM-QTE[pY]AVIKFP-NH2) | 0.0802 ± 0.00432 | 0.84 ± 0.228
CC[C@H](C)[C@H](NC(=O)[C@@H](NC(=O)[C@H](C)NC(=O)[C@H](Cc1ccc(OP(=O)(O)O)cc1)NC(=O)[C@H](CCC(=O)O)NC(=O)[C@@H](NC(=O)[C@H](CCCCN)NC(=O)c1ccc2c(c1)C(=O)OC21c2ccc(O)cc2Oc2cc(O)ccc21)[C@@H](C)O)[C@@H](C)O)C(=O)N[C@@H](CCCCN)C(=O)N[C@@H](Cc1ccccc1)C(=O)N1CCC[C@H]1C(N)=O [compound 15] (5FAM-KTE[pY]ATIKFP-NH2) | 0.0615 ± 0.00183 | 1.55 ± 0.528
CC[C@H](C)[C@H](NC(=O)[C@@H](NC(=O)[C@H](C)NC(=O)[C@H](Cc1ccc(OP(=O)(O)O)cc1)NC(=O)[C@H](CCC(=O)O)NC(=O)[C@@H](NC(=O)[C@H](CCC(N)=O)NC(=O)c1ccc2c(c1)C(=O)OC21c2ccc(O)cc2Oc2cc(O)ccc21)[C@@H](C)O)[C@@H](C)O)C(=O)N[C@@H](CCCCN)C(=O)N[C@@H](Cc1ccccc1)C(=O)N1CCC[C@H]1C(N)=O [compound 16] (5FAM-QTE[pY]ATIKFP-NH2) | 0.086 ± 0.00243 | 1.09 ± 0.199
CC[C@H](C)[C@H](NC(=O)[C@@H](NC(=O)[C@H](C)NC(=O)[C@H](Cc1ccc(OP(=O)(O)O)cc1)NC(=O)[C@H](CCC(=O)O)NC(=O)[C@@H](NC(=O)[C@H](CCC(N)=O)NC(=O)c1ccc2c(c1)C(=O)OC21c2ccc(O)cc2Oc2cc(O)ccc21)[C@@H](C)O)[C@@H](C)O)C(=O)N[C@@H](CCCCN)C(=O)N[C@@H](Cc1ccc(O)cc1)C(=O)N1CCC[C@H]1C(N)=O [compound 17] (5FAM-QTE[pY]ATIKYP-NH2) | 0.116 ± 0.0077 | > 3
CC[C@H](C)[C@H](NC(=O)[C@@H](NC(=O)[C@H](C)NC(=O)[C@H](Cc1ccc(OP(=O)(O)O)cc1)NC(=O)[C@H](CCC(=O)O)NC(=O)[C@@H](NC(=O)[C@H](CCC(N)=O)NC(=O)[C@H](C)NC(=O)c1ccc2c(c1)C(=O)OC21c2ccc(O)cc2Oc2cc(O)ccc21)[C@@H](C)O)[C@@H](C)O)C(=O)N[C@H](C(=O)N[C@@H](Cc1ccccc1)C(=O)N1CCC[C@H]1C(N)=O)C(C)C [peptide 1] (5FAM-AQTE[pY]ATIVFP-NH2) | 0.062 ± 0.00198 | 0.295 ± 0.0372
CC[C@H](C)[C@H](NC(=O)[C@@H](NC(=O)[C@H](C)NC(=O)[C@H](Cc1ccc(OP(=O)(O)O)cc1)NC(=O)[C@H](CCC(=O)O)NC(=O)[C@@H](NC(=O)[C@H](C)NC(=O)[C@H](CCC(=O)O)NC(=O)c1ccc2c(c1)C(=O)OC21c2ccc(O)cc2Oc2cc(O)ccc21)[C@@H](C)O)[C@@H](C)O)C(=O)N[C@H](C(=O)N[C@@H](Cc1ccccc1)C(=O)N1CCC[C@H]1C(N)=O)C(C)C [peptide 2] (5FAM-EATE[pY]ATIVFP-NH2) | 0.0513 ± 0.00108 | 0.058 ± 0.0046
CC[C@H](C)[C@H](NC(=O)[C@@H](NC(=O)[C@H](C)NC(=O)[C@H](Cc1ccc(OP(=O)(O)O)cc1)NC(=O)[C@H](CCC(=O)O)NC(=O)[C@H](C)NC(=O)[C@H](CCC(N)=O)NC(=O)[C@H](CCC(=O)O)NC(=O)c1ccc2c(c1)C(=O)OC21c2ccc(O)cc2Oc2cc(O)ccc21)[C@@H](C)O)C(=O)N[C@H](C(=O)N[C@@H](Cc1ccccc1)C(=O)N1CCC[C@H]1C(N)=O)C(C)C [peptide 3] (5FAM-EQAE[pY]ATIVFP-NH2) | 0.135 ± 0.0046 | 0.428 ± 0.0251
CC[C@H](C)[C@H](NC(=O)[C@@H](NC(=O)[C@H](C)NC(=O)[C@H](Cc1ccc(OP(=O)(O)O)cc1)NC(=O)[C@H](CCC(=O)O)NC(=O)[C@@H](NC(=O)[C@H](CCC(N)=O)NC(=O)c1ccc2c(c1)C(=O)OC21c2ccc(O)cc2Oc2cc(O)ccc21)[C@@H](C)O)[C@@H](C)O)C(=O)N[C@@H](CCCCN)C(=O)N[C@@H](Cc1c[nH]cn1)C(=O)N1CCC[C@H]1C(N)=O [peptide 18] (5FAM-QTE[pY]ATIKHP-NH2) | 0.0882 ± 0.00429 | > 3
